Assay results: patent US20250295579A1, “SKIN CARE COMPOSITION AND USES THEREOF” (S-BIOMEDIC NV, priority 2022, published 2025)

Assays:
Test in all cases: Influence of cosmetic ingredients on C. acnes growth in 96-well plates (OD600)
Format in all cases: cell-based, Cutibacterium acnes
C. acnes A1 strain = conditions: PBS 1% w/v peptone
Protocol: (§1) One day before the experiment: starter bacterial cultures of C. acnes A1, D1, H1 and K8 strains from the working cell bank (WCB) glycerol stocks were prepared in a final volume of 15 ml. The C. acnes strains were isolated from healthy volunteers and they were characterized for their growth, 16S and SLST sequence to identify the specific strain. The volumes of WCB were 1 ml for A1 and 300 μl for D1, H1, and K8. The cultures were incubated overnight at 37° C.
(§2) At the day of the experiment, after 24 h incubation, inoculums were taken out of the incubator and homogenized with vortex. 50 μl aliquots were separated from each inoculum to 1.5 ml tubes and their OD600 was measured by Nanodrop.
(§3) Each aliquot was measured twice and its OD600 was determined by calculating the mean value. The tubes were centrifuged (3000 rcf, 5 min) and the supernatant was discarded. The pellet was resuspended in 15 ml of PBS (phosphate buffered saline). This washing, consisting of centrifugation, discarding the supernatant, and resuspension was repeated. Then, the OD600 was adjusted in PBS to 2 for each strain. Small aliquots were separated and read on Nanodrop again at the end of this process to ensure a starting OD600 of 2 (+/−0.2) in the bacterial cultures.
(§4) All the ingredients were tested in either of the two different media: PBS 3% w/v Glucose and PBS 1% w/v Peptone. Additionally, all strains were grown on PBS and PBS 3% w/v Glucose 1% w/v Peptone, as negative and positive control, respectively.
(§5) Medium was prepared at 2.5×concentration and then diluted to 1× when mixed with the ingredient and inoculum into the test plates.
(§6) PBS 7.5% w/v Glucose media was filter sterilized (Millipore pump). 50% w/v Peptone diluted in ultrapure water (Milli-Q) was prepared, autoclaved and then diluted to 2.5% w/v with PBS. PBS 7.5% w/v Glucose 2.5% w/v peptone media was prepared diluting 50% Peptone on filtered PBS 7.125% Glucose.
(§7) The range of concentrations tested was based on the concentration that the chosen compound could have in the final cosmetic product. Three different concentrations were tested for each ingredient: maximum concentration, minimum concentration and a concentration in the middle between the maximum and minimum concentration (half of the highest one).
(§8) All compounds were prepared on milliQ water. 50 ml of stocks for each ingredient were prepared at double of the highest concentration to be tested. After solubilization, the ingredients were filter sterilized.
(§9) The experiment was performed in transparent 96-well plates. Each one of them contained one media (either peptone or glucose), one strain inoculum and either of the ingredients. The final volume in each well was 200 μl: 100 μl of 2× ingredient, 80 μl of 2.5× medium and 20 μl of bacterial inoculum of OD600. Triplicates were done for every condition. Controls without ingredient and without bacteria were included in this experiment to detect possible contaminations.
(§10) One 96-well 2 ml deep well-plate was used for each batch. The double concentrated ingredients were distributed manually on the deep well plate and the corresponding serial dilutions were performed on PBS with an automatic multichannel pipette. Then, the content of each deep well plate was distributed to 8 different 96-standard well plate with Zephyr SPE workstation (automated liquid handler).
(§11) 100 μl of ingredient per well were transferred to each plate. The zephyr program contained a resuspension step on the deep well plate and a step in which the tips leaned on the sides of each well of the plates to ensure the accurate volume disposal.
(§12) Once the 100 μl of ingredient were transferred to each plate, 80 μl of either Glucose or Peptone medium was poured into the plate with Multidrop Combi Plate dispenser (Thermo Fisher). The multidrop was also used to dispense 20 μl per well of the corresponding strain inoculum, which was previously prepared as described in the previous part. […]

C. acnes D1 strain = tested on: C. acnes D1 strain
Protocol: as §1, §2, §3, §4, §5, §6, §7, §8, §9, §10, §11, §12

C. acnes H1 strain = tested on: C. acnes H1 strain
Protocol: as §1, §2, §3, §4, §5, §6, §7, §8, §9, §10, §11, §12

C. acnes K8 strain = tested on: C. acnes K8 strain
Protocol: as §1, §2, §3, §4, §5, §6, §7, §8, §9, §10, §11, §12

[1] = 1% w/v sorbitol, PBS 1% w/v peptone, FIG. 2
[2] = 1% v/v glycerol, PBS 1% w/v peptone, FIG. 1
[3] = 3% w/v sodium lactate, PBS 1% w/v peptone, FIG. 3
[4] = 0.075% w/v sodium cetaryl sulphate, PBS 3% w/v glucose, FIG. 5

Compound: OC[C@@H](O)[C@@H](O)[C@H](O)[C@@H](O)CO [Sorbitol]
- effect on growth (C. acnes A1 strain; 1% w/v sorbitol, FIG. 2): improved the growth
- effect on growth (C. acnes D1 strain; [1]): improved the growth
- growth improved by a factor (C. acnes H1 strain; [1]): 4.5
- effect on growth (C. acnes K8 strain; [1]): improved the growth

Compound: OCC(O)CO [Glycerol]
- improvement of growth compared to the peptone control condition (C. acnes A1 strain; 1% v/v glycerol, FIG. 1): four
- improvement of growth compared to the peptone control condition (C. acnes D1 strain; [2]): four
- improvement of growth compared to the peptone control condition (C. acnes H1 strain; [2]): four
- improvement of growth compared to the peptone control condition (C. acnes K8 strain; [2]): four

Compound: CC(O)C(=O)[O-].[Na+] (stereo not drawn) [Sodium lactate, sodium lactate]
- effect on growth (C. acnes A1 strain; 3% w/v sodium lactate, FIG. 3): improved the growth
- effect on growth (C. acnes D1 strain; [3]): improved the growth
- effect on growth (C. acnes H1 strain; [3]): improved the growth
- effect on growth (C. acnes K8 strain; [3]): improved the growth of the four tested strains, with a higher effect on the strain K8

Compound: sodium cetearyl sulphate [Sodium cetaryl sulphate]
- effect on growth (C. acnes D1 strain; [4]): selectively and significantly improved the growth
- effect on growth (C. acnes H1 strain; [4]): selectively and significantly improved the growth
- effect on growth (C. acnes K8 strain; [4]): Negative effect
